In patent publication US7863428B2, “Fluorogenic enzyme substrates and methods of preparation” (Tibotec BVBA, priority 2002, dated 2011):

How the values were obtained:
[1] = tested on: β-D-glucuronidase from Helix Pommatia type HP-2; assay: Quick test for enzyme recognition of GUS substrates; type: biochemical
Method: Dibutyl GUS substrate (compound 27) was tested. First a solution of 2 mg of product (compound 27) in 2 ml pH 8 buffer solution (Merck Titrisol 9888) was made. 1 ml of this solution was kept aside, to the other 1 ml solution 5 μl (500 UNITS) β-D-glucuronidase from Helix Pommatia type HP-2 (Sigma G7017) was added. […] The plate was developed using isooctane/acetone 60:40.

[2] = tested on: GUS reporter enzyme in hair-root cells of a transgenic tobacco plant; assay: Testing substrate in vivo, confocal microscopy of hair-root cells; type: cell-based; conditions: cells not permeabilized
Text: FIG. 1. Testing substrate (compound 27) in vivo.

[3] = tested on: GUS transfected 293T cells; assay: Enzymatic test in mammalian cells electroporated with pLNCGUS; type: cell-based; conditions: 10 μg/ml
Method: FIG. 3. Fluorescent (=GUS transfected) and non-fluorescent 293T cells with the presence of compound 27.
Cells were electroporated in the presence of 10 μg pLNCGUS and after 24 hours, compound 27 (10 mM stock in DMSO) was added to a final concentration of 10 μg/ml. Less than 5% of the cells had taken up the pLNCGUS plasmid.

Row | Compound | reaction in GUS substrate test ([1]; after 30 minutes) | detection of GUS reporter enzyme in the cell nucleus [2] | fluorescence of cells in the presence of substrate ([3]; 293T cells electroporated with 10 μg pLNCGUS, substrate added after 24 hours) | fluorescence of cells in the presence of substrate ([3]; cells electroporated in the absence of pLNCGUS) | fluorescent spot on TLC plate after incubation with GUS enzyme (conversion of non-fluorescent substrate into fluorescent product) ([1]; 2 mg in 2 ml pH 8 buffer, 500 UNITS enzyme per 1 ml, 15 minutes shaking at room temperature)
1 | CCCCCc1ccc(O[C@@H]2O[C@H](C(=O)O)[C@@H](O)[C@H](O)[C@H]2O)c(-c2nc3ccc(CCCCC)cc3c(=O)[nH]2)c1 [compound 24, 1-O-(2-(4-oxo-6-n-pentyl-3H-quinazolinyl)-4-n-pentylphenyl)-β-D-glucuronic acid] | clear positive reaction | – | – | – | –
2 | CCCCc1ccc(O[C@@H]2OC(C(=O)O)[C@@H](O)[C@@H](O)C2O)c(-c2nc3ccc(CCCC)cc3c(=O)[nH]2)c1 (some centres unmarked) [compound 27] | – | can be shown with lipophilic GUS substrate (compound 27) without permeabilizing cells | Fluorescent | weak background fluorescence | clear fluorescent spot
